In BigSolDB 2.1:

Nc1cc(Cl)ccc1[N+](=O)[O-]
solubility (mole fraction)
Conditions	283.15 K	288.15 K	293.15 K	298.15 K	303.15 K	308.15 K	313.15 K	318.15 K	323.15 K
in 2-butanone	0.141	0.149	0.164	0.173	0.187	0.203	0.218	0.234	0.252
in acetone	0.126	0.141	0.152	0.165	0.183	0.2	0.219	0.242	0.262
in acetonitrile	0.0303	0.036	0.0428	0.0519	0.0633	0.0751	0.0945	0.11	0.135
in ethanol	0.0164	0.0184	0.0215	0.0243	0.0273	0.0317	0.0373	0.0441	0.0497
in ethyl acetate	0.0983	0.107	0.117	0.133	0.144	0.158	0.174	0.193	0.24
in isobutanol	0.0116	0.0129	0.0154	0.0185	0.0219	0.0259	0.0308	0.0361	0.0444
in isopropanol	0.0146	0.017	0.0197	0.0232	0.0267	0.0321	0.0372	0.0451	0.0539
in methanol	0.0104	0.0122	0.0142	0.0164	0.019	0.0235	0.027	0.0326	0.0374
in methyl acetate	0.101	0.108	0.12	0.133	0.147	0.162	0.178	0.192	0.214
in n-butanol	0.0182	0.0209	0.0246	0.0283	0.0311	0.0358	0.0426	0.0481	0.0553
in n-propanol	0.0161	0.0184	0.0214	0.0246	0.0284	0.0315	0.0373	0.0452	0.0517
in water	5.45e-06	9.54e-06	1.22e-05	1.77e-05	2.18e-05	2.73e-05	3.53e-05	4.25e-05	4.78e-05
